Source: patent US20240091314A1, “USE OF THYMOSIN ALPHA FOR THE TREATMENT OF SEPSIS” (SciClone Pharmaceuticals, Inc., priority 2012, published 2024)

Assays:
[1] = test system: patients with severe sepsis; test: ETASS multicenter randomized controlled trial: mortality, prognosis and SOFA in severe sepsis; assay type: in vivo, human
Description: We did a prospective, controlled, single-blinded, multi-center randomized clinical trial, which was conducted in the ICUs of six tertiary, teaching hospitals. The ethics committee of the First Affiliated Hospital of Sun Yat-sen University approved the protocol (200815). Written informed consents were obtained from the patients or next of kin for patients unable to consent. The trial was registered with ClinicalTrials.gov, number NCT00711620.
From May 12, 2008 to Dec. 22, 2010 patients diagnosed with severe sepsis admitted to ICUs were enrolled in the trial. The criteria for severe sepsis were a modification of those defined by Bernard et al. (see Additional file 1).
To reduce the impact on the results from heterogeneity of severe sepsis and inter-hospital variation in patient sources as much as possible, stratification by investigative center in combination with computer-generated block randomization (block size=8) according to the sequence of recruitment was employed in the enrollment process. The method of randomization and block size were blinded until the data analysis was finished completely. Clinicians who enrolled the subjects were not involved in data collection. Eligible patients were randomly assigned in a 1:1 ratio in each hospital with four in each block assigned to receive the study drug and the other four to the control group after telephone verification through a randomization center. The allocation sequence was concealed from the researchers. To prevent advance knowledge of treatment assignment and subversion of the allocation sequence, trial entry sheet of the case report form (CRF) was filled out and informed consent was obtained before disclosing the unique participant number and the allocated group; the unique number generated could not be changed and deleted afterward. We used normal saline as placebo. Patients were blinded to the treatment assignments. All statistical analysis was done with masking maintained.
(§1) In the Tα1 group, patients received subcutaneous injections of 1.6 mg Tα1 (ZADAXIN™, SciClone Pharmaceuticals, Foster City, CA, USA) twice per day for five consecutive days, then once per day for two consecutive days. Prior to administration, the lyophilized powder is to be reconstituted with 1 ml of the provided diluent (sterile water for injection). After reconstitution, the final concentration of Tα1 is 1.6 mg/mL. In the control group, patients received subcutaneous injections of 1 mL normal saline twice per day for five consecutive days, then once per day for two consecutive days. According to trial protocol, therapy had to be started within 4 hrs after enrollment.
The treating physicians dictated patient care to current international guidelines, including adequate empiric antibiotic therapy based on current recommendations, ventilation regimen (pressure control mode), blood glucose control, resuscitation and hemodynamic support, organ support, sedation or analgesia as needed and adequate nutrition. Empirical antibiotic therapy was considered adequate when at least one effective drug was included in the empirical antibiotic treatment within the first 24 hrs of the admission to the ICU and the optimal dose and the correct route of administration were in accordance with medical standards and in ICU survivors without microbiologically detected microorganism in bloodstream or focus. When the empirical antibiotic therapy had to be changed after microbiological detection of microorganism, it was considered inadequate, whereas in non-survivors without microbiologically detected microorganism in bloodstream or focus it was considered not evaluable.
The primary efficacy end point was death from any cause and was assessed 28 days after the initiation of treatment assignment. […]

[2] = test system: patients with severe sepsis; test: ETASS trial: safety and tolerability assessment; assay type: in vivo, human; conditions: for drug-related serious/severe adverse events: assessed by the investigator
Description: as §1
Safety and tolerability assessment of Tα1 (see Additional file 3) was based on the comparison of all available information obtained from the two groups with respect to detected outliers in laboratory safety data, drug-related serious adverse events (assessed by the investigator) and deterioration of organ and system function (assessed by the individual SOFA component scoring for respiratory, cardiovascular, hepatic, coagulation, renal and nervous systems that arose during the treatment).

[3] = test system: mHLA-DR (monocyte human leukocyte antigen-DR); test: ETASS trial: monocyte HLA-DR expression (% of positive monocytes); assay type: in vivo
Description: as §1
(§2) The primary efficacy end point was death from any cause and was assessed 28 days after the initiation of treatment assignment. Secondary outcomes included dynamic changes of Sequential Organ Failure Assessment (SOFA), CD 4+/CD8+ and monocyte human leukocyte antigen-DR (mHLA-DR) expression measured on day 0 (the day of enrollment), 3 and 7 in both groups. All mHLA-DR measurements were done in the center laboratory of the First Affiliated Hospital of Sun Yat-sen University. 1 ml unprocessed EDTA whole blood was stored on ice at once after drawing and was transferred to the center laboratory as soon as possible to guarantee measurement within 3 hrs after blood drawing. The method of measuring mHLA-DR was mentioned in our previous paper. Once patients were enrolled, data including demographic characteristics, microbiological findings (primary infection source and the identified microorganisms) and comorbidities were collected when available. The following clinical parameters were recorded on specific days after enrollment: on day 0, the severity as assessed by the Acute Physiology and Chronic Health Evaluation II (APACHE II); on day 0, 3, 7, SOFA, hematologic and biochemical findings, results of mHLA-DR, CD4+/CD8+ tests. The time of the first organ dysfunction was retrospectively estimated according to objective data such as blood gas analysis when the patient was enrolled.
(§3) Based on a previous study, a sample size of 334 patients was required to show a reduction in 28-day mortality rate from 50% to 35% by Tα1 treatment, with a two-sided test (a error=5%; power=80%). Considering a possible drop-out rate of 10%, the trial would need to enroll 368 patients in total. Demographic data, outcome data and other laboratory parameters were summarized by frequency for categorical variables and mean±standard deviation (SD) or median with interquartile range (IQR) for continuous variables. Proportions were compared with chi-square test or Fisher's exact test. Continuous variables were tested by means of t test with normal distribution or Wilcoxon rank-sum test with non-normal distribution. The comparison of primary outcome between two groups was performed by means of Cochran-Mantel-Haenszel test, in which patients were stratified on a number of baseline covariates such as mHLA-DR, scores of APACHE and SOFA, surgical and cancer history, sex and age. The corresponding relative risks (RRs) with 95% confidence intervals (Cis) were computed with logit-adjusted method. Kaplan-Meier estimates without adjustment for baseline covariates were used for survival time analysis, and log-rank tests for comparison. To estimate mean changes from baseline in laboratory parameters, linear mixed models for repeated measures were employed, taking into account the clustering of participating centers and repeated measurements within patients. This model included terms for baseline measurement, treatment group, visit, and treatment×visit interaction. Least-squares means with 95% CIs were reported. We also analyzed the efficacy parameters of the study drug in different prespecified subgroups. The heterogeneity of treatment effects among subgroups was assessed with use of interaction tests. […]

CD4+/CD8+ = test: ETASS trial: CD4+/CD8+ ratio; assay type: in vivo, human
Description: as §1, §2, §3

[4] = 1.6 mg s.c. twice per day 5 days, then once per day 2 days, n = 181
[5] = during the 28-day study period, n = 181

thymosin alpha 1 [Tα1]
28-day mortality (death from any cause), number of patients [1, 4]: 47 | 28-day mortality (death from any cause), rate [1, 4]: 26.0% | 28-day mortality (death from any cause), rate ([1]; 1.6 mg s.c. twice per day 5 days, then once per day 2 days, n = 181, listed as Talpha1): 26.0% | 28-day mortality (death from any cause), rate ([1]; 1.6 mg s.c. twice per day 5 days, then once per day 2 days, n = 181, listed as TαI): (26.0%) | survival after enrollment vs control group (Kaplan-Meier, log rank) ([1]; 28 days, log rank P=0.049): survived longer | SOFA score, Mean (95% CI) ([1]; Day 0 (day of enrollment)): 7.9 | SOFA score, Mean (95% CI) ([1]; Day 3): 6.1 | SOFA score, Mean (95% CI) ([1]; Day 7): 5.3 | SOFA score ΔDay 3, between groups difference ([1]; Tα1 group vs control group): −0.5 | SOFA score ΔDay 7, between groups difference ([1]; Tα1 group vs control group): −0.7 | SOFA score change ΔDay 3 ([1]; day 3 compared with day 0): −1.8 | SOFA score change ΔDay 7 ([1]; day 7 compared with day 0): −2.5 | ICU-free days, Median (95% CI) [1, 5]: 10.0 days | Ventilation-free days, Median (95% CI) [1, 5]: 18.0 days | relative risk of death in hospital compared to the control group ([1]; in vivo): 0.73 | Duration of ventilation, Median (IQR) ([1]; n = 181): 7.0 | ICU stay, Median (IQR) ([1]; n = 181): 11.0 | In-ICU mortality, number of patients ([1]; n = 181): 35 | In-ICU mortality, rate ([1]; n = 181): (19.3%) | In-hospital mortality, number of patients ([1]; n = 181): 52 | In-hospital mortality, rate ([1]; n = 181): 28.7% | In-hospital mortality, rate ([1]; n = 181, listed as TαI): (28.7%) | relative risk of death, non-cancerous patients ([1]; non-cancerous patients): 0.91 | relative risk of death within 28 days as compared to the control group ([1]; non-stratified analysis): 0.74 | relative risk of death compared to the control group, subgroup of patients with cancer ([1]; patients with cancer): 0.46 | primary end point in prespecified subgroups (APACHE II, SOFA, mHLA-DR, surgery or cancer history, sex, age) ([1]; stratified analyses): tended to improve outcome but without statistical significance | absolute reduction in 28-day mortality ([1]; vs control group): 9.0% | decreasing tendency within 7 days in SOFA score ([1]; vs control group): seemed to favor the Tα1 group | difference between the two groups in ICU mortality, ventilation-free days, ICU-free days, length of ICU stay and duration of mechanical ventilation ([1]; vs control group): no significant difference | drug-related serious/severe adverse events [2]: no Tα1-related severe adverse event (SAE) was reported | drug-related serious/severe adverse events ([2]; listed as Talpha1): No serious drug-related adverse event | drug-related serious/severe adverse events ([2]; listed as Thymosin alpha 1): not observed | patients with impairment (SOFA component score deterioration): Cardiovascular system, frequency in parentheses ([2]; during the treatment, n = 181): (15.5) | patients with impairment (SOFA component score deterioration): Cardiovascular system, number ([2]; during the treatment, n = 181): 28 | patients with impairment (SOFA component score deterioration): Coagulation system, frequency in parentheses ([2]; during the treatment, n = 181): (26.5) | patients with impairment (SOFA component score deterioration): Coagulation system, number ([2]; during the treatment, n = 181): 48 | patients with impairment (SOFA component score deterioration): Hepatic system, frequency in parentheses ([2]; during the treatment, n = 181): (11.6) | patients with impairment (SOFA component score deterioration): Hepatic system, number ([2]; during the treatment, n = 181): 21 | patients with impairment (SOFA component score deterioration): Nervous system, frequency in parentheses ([2]; during the treatment, n = 181): (7.7) | patients with impairment (SOFA component score deterioration): Nervous system, number ([2]; during the treatment, n = 181): 14 | patients with impairment (SOFA component score deterioration): Renal system, frequency in parentheses ([2]; during the treatment, n = 181): (14.4) | patients with impairment (SOFA component score deterioration): Renal system, number ([2]; during the treatment, n = 181): 26 | patients with impairment (SOFA component score deterioration): Respiratory system, frequency in parentheses ([2]; during the treatment, n = 181): (13.3) | patients with impairment (SOFA component score deterioration): Respiratory system, number ([2]; during the treatment, n = 181): 24 | difference vs control in frequency of outlying laboratory values and all-cause organ or system impairment ([2]; in vivo): no statistically significant differences | treatment discontinuation due to intolerance or adverse events ([2]; in vivo): no treatment was discontinued | patients with Hypoglycemia, frequency in parentheses ([2]; n = 181): (4.4) | patients with Hypoglycemia, number ([2]; n = 181): 8 | patients with outlying values: ALT (U/L), frequency in parentheses ([2]; n = 181): (21.0) | patients with outlying values: ALT (U/L), number ([2]; n = 181): 38 | patients with outlying values: AST (U/L), frequency in parentheses ([2]; n = 181): (23.8) | patients with outlying values: AST (U/L), number ([2]; n = 181): 43 | patients with outlying values: Creatinine (mmol/L), frequency in parentheses ([2]; n = 181): (9.9) | patients with outlying values: Creatinine (mmol/L), number ([2]; n = 181): 18 | patients with outlying values: Hemoglobin (g/L), frequency in parentheses ([2]; n = 181): (14.9) | patients with outlying values: Hemoglobin (g/L), number ([2]; n = 181): 27 | patients with outlying values: Platelets 10^3/mm^3), frequency in parentheses ([2]; n = 181): (37.0) | patients with outlying values: Platelets 10^3/mm^3), number ([2]; n = 181): 67 | mHLA-DR, Mean (95% CI) ([3]; Day 0 (day of enrollment)): 51.8% | mHLA-DR, Mean (95% CI) ([3]; Day 3): 59.8% | mHLA-DR, Mean (95% CI) ([3]; Day 7): 68.9% | mean difference in mHLA-DR changes between the two groups, day 3 ([3]; Tα1 group vs control group): 3.9% | mean difference in mHLA-DR changes between the two groups, day 7 ([3]; Tα1 group vs control group): 5.8% | mHLA-DR mean change from baseline ΔDay 3 ([3]; day 3 compared with day 0): 8.0% | mHLA-DR mean change from baseline ΔDay 7 ([3]; day 7 compared with day 0): 17.0% | ratio of CD4+/CD8+ during the 7 days (CD4+/CD8+; 7 days): remained unchanged | CD4+/CD8+, Mean (95% CI) (CD4+/CD8+; Day 0 (day of enrollment)): 2.5 | CD4+/CD8+, Mean (95% CI) (CD4+/CD8+; Day 3): 2.7 | CD4+/CD8+, Mean (95% CI) (CD4+/CD8+; Day 7): 2.5 | CD4+/CD8+ ΔDay 3, between groups difference (CD4+/CD8+; Tα1 group vs control group): 0 | CD4+/CD8+ ΔDay 7, between groups difference (CD4+/CD8+; Tα1 group vs control group): 0.1 | CD4+/CD8+ change ΔDay 3 (CD4+/CD8+; day 3 compared with day 0): 0.3 | CD4+/CD8+ change ΔDay 7 (CD4+/CD8+; day 7 compared with day 0): 0.1
